Source: patent publication US20120294808A1, “Fluorescent Analogs of Neurotransmitters, Compositions Containing the Same and Methods of Using the Same” (UNIVERSITY OF MIAMI, priority 2009, published 2012)
Values joined by “and” are separate entries in the source; they are usually repeats but may differ in a detail not shown here. Equal values may be shown once. “Also recorded” adds a separate entry of the source.

Columns and labels:
[1] = system: Mixed cell cultures of neurons and astroglia isolated from the brain stems of E14 chick embryos; assay: Microwell plate reader cellular uptake assay, with and without clomipramine (SRI) pretreatment; assay type: cell-based; details: for effect of Clomipramine pretreatment on uptake: pre-treatment with Clomipramine, a serotonin reuptake inhibitor; for emission response (cellular uptake): λex=355 nm, λem=444 nm, versus controls A and B
Text: Mixed cell cultures of neurons and astroglia isolated from the brain stems of E14 chick embryos were exposed to solutions of 1-4. Serotonergic cells are clustered in the raphe nucleus (RN) located along the midline of the brain stem; they project into other regions of the brain including the hypothalamus, the olfactory bulb, cortex and cerebellum. […] The inherent fluorescence of the carbostyril core enabled direct detection of their cellular uptake utilizing a microwell plate reader (λex=355 nm, λem=444 nm).
It was believed that several modes of interaction are possible between the fluorescent probes and the cultured cells including specific interactions such as active transport via neurotransmitter transporters, or binding to neurotransmitter receptors, as well as non-specific interactions such as insertion into the cell membrane.

[2] = system: Neurons and astroglia isolated from E14 chick brainstems; assay: Live confocal imaging of cultured cells exposed to probe (405 nm excitation); assay type: cell-based
Experimental: In other words, whether the probe localized to the cell membrane, implying binding to transporters or receptors, or whether the probe was internalized, implying active transport into the cytosol. Neurons and astroglia isolated from E14 chick brainstems were grown on poly-L-lysine and laminin treated coverslips affixed to 35 mm culture dishes enabling live imaging of the cells in culture media. […] Cells were exposed to the probe solution for one minute, the media was then changed and additional images were captured. […] During the course of the imaging experiments, some photobleaching was observed.

[3] = Optical properties (absorption and emission spectra) of carbostyril probes 1-4; assay type: physicochemical; details: for small additional emission peak: acidic solutions, protonated form
Text: The optical properties of 1-4 were investigated in order to determine their suitability as fluorescent probes. Absorption spectra were obtained in neutral, acidic and basic solutions. […] Addition of acetic acid effected a hypsochromic shift (λmax=335 nm); the addition of triethylamine results in pronounced bathchromic (λmax=370 nm) and hyperchromic shifts. The linear combination of the absorption spectra with excess acid and excess base nearly perfectly overlaps with the spectrum obtained at pH 7.2 (FIG. 1). Therefore, it was determined that at near neutral pH (between approximately 6.5-7.5pH), both protonated and unprotonated species exist at roughly equal concentrations.
Thus, it was determined that in neutral and basic solutions, 1-4 emit from a deprotonated excited state species. Emission in acidic solutions is dominated by the deprotonated species as well. In the case of 3 and 4 a small peak at 380 nm was observed, which is likely due to photoemission from the protonated form of these molecules. While 5HT itself is fluorescent, single photon excitation of 5HT requires specialized optics and a UV excitation source (λmax,abs=277 nm). Furthermore, the autofluorescence of biological samples is also quite high in the UV region. The longer wavelength absorption of 1-4 allows selective photoexcitation of these fluorophores in the presence of aromatic amino acid residues and nucleobases.

[4] = Solubility of probes 1-4 in methanol and PBS; assay type: physicochemical; details: phosphate-buffered saline (PBS), aqueous buffer; read-out: concentration at which soluble in PBS
Text: The synthesis of analogs 2-4 followed a similar route: reaction of 5 with chloroethylamine followed by deprotection of the 6-hydroxy group produced 2; 3 and 4 resulted from reaction of 5 with bromoethanol and bromopropylbenzene respectively. In all cases the N-linked isomer was isolated.

[5] = system: dissociated e19 chick brain cells; assay: Example 4 uptake in brain cells (microwell plate assay and/or live cell confocal imaging, 405 nm laser); assay type: cell-based; details: 10 μM to 100 μM; absence of monoamine reuptake inhibitors
Experimental: Stock solutions of the compounds shown below (UM001-UM005, 8, 9 & 12A from Example 2) were used to produce compositions with final concentrations ranging from 10 μM to 100 μM. The compositions were then contacted with dissociated e19 chick brain cells, irradiated with a 405 nm laser, and imaged using confocal microscopy.

[6] = Optical spectroscopy (UV-vis and fluorescence) of the stilbazolium emitter library; assay type: physicochemical
Experimental: UV-vis spectroscopy was conducted to evaluate the absorption and emission spectra for each of the thirty-two emitters.

[7] = system: dissociated e19 chick brain cells; assay: 96-microwell plate uptake screen, with and without indatraline pretreatment; assay type: cell-based; details: pretreated with indatraline, a monoamine reuptake inhibitor
Experimental: The native fluorescence of the emitters enables direct detection of their uptake in dissociated e19 chick brain cells in a convenient 96-microwell plate format. This method enables screening for activity against multiple cell types and transporters including MATs and OCTs without the use of radioactive compounds. Solutions of 11A-18D were added to cell culture media to produce an emitter concentration of 100 μM. The incubation time used was 10 min. The fluorphore solution was removed, fresh media added and the plate immediately analyzed by microwell plate reader. Given the broad range of absorption and emission wavelengths, excitation varied from 355 nm to 500 nm with emission collected at +100 nm to +150 nm.
From this initial assay, it was possible to determine whether a compound associates with the cultured cells; however, it was not clear whether a particular compound was actively transported into cells or simply interacts with the cell membrane. The monoamine transporter (MAT) reuptake inhibitor, indatraline, was utilized to provide some insight into what mechanisms of cellular uptake are at play. Dissociated brain cells were pretreated with indatraline followed by each of the twelve emitters identified from the results shown in FIG. 5.

hNET = target: T1, hNET (Homo sapiens, UniProt P23975); assay: Time-lapse confocal fluorescence microscopy of transporter-expressing HEK-293 cells (hNET); assay type: cell-based; details: HEK-293 hNET, 10 μM to 100 μM, images at 10 sec intervals
T1 construct: expressed in transfected cells
Text: (§1) HEK-293 cells stably expressing hDAT, hNET and hSERT were provided by Prof. R. Blakely (See, e.g., J. W. Schwartz, R. D. Blakely and L. J. DeFelice, J. Biol. Chem., 2003, 278, 9768.) and cultured on 35 mm dishes with a coverslip imaging window for confocal microscopy. […] Laser intensity and gain were not altered for subsequent images captured at 10 sec intervals. Representative images are shown in FIG. 7 together with intensity profiles captured from cell bodies.

hDAT = target: T2, hDAT (Homo sapiens, UniProt Q01959); assay: Time-lapse confocal fluorescence microscopy of transporter-expressing HEK-293 cells (hDAT); assay type: cell-based; details: HEK-293 hDAT, 10 μM to 100 μM, images at 10 sec intervals
T2 construct: expressed in transfected cells
Text: as §1

hSERT = target: T3, hSERT (Homo sapiens, UniProt P31645); assay: Time-lapse confocal fluorescence microscopy of transporter-expressing HEK-293 cells (hSERT); assay type: cell-based; details: HEK-293 hSERT, 10 μM to 100 μM, images at 10 sec intervals
T3 construct: expressed in transfected cells
Text: as §1

[8] = system: live brainstem and cerebellum sections from e19 chicks; assay: Confocal imaging of live brain explant sections, with and without desipramine; parameters: species or system chick; details: for distribution in live brain sections: 405 nm excitation, cerebellum and brainstem
Text: This distribution is consistent with the behavior of these probes towards MAT-expressing HEK293 cells. The wider distribution of 13A may be due to binding to multiple transporter types, wh[…] may be limited to NET or DAT expressing catecholaminergic cells. […] Image overlays from 100 μm sagittal (FIG. 8A) and transverse (FIG. 8B) sections reveal that both probes are associated with cells of chick mesencephalon and metencephalon. The fluorophores were excited by laser at 405 nm. […] The scale bars for FIG. 8 are as follows: 8A & 8B=100 μm; C & D=10 μm; and E & F=50 μm).

[9] = system: monoamine oxidases (MAOs); assay: Conversion of profluorescent HNETP to HNEP+ in cell culture; assay type: cell-based
Text: In addition, it has been discovered that reduction of HNEP+ (UM006) results in the formation of HNETP (UM007). This provides a profluorescent option for screening pharmaceutical targets in vivo, which allows for the assessment of bioavailability of compounds in model organisms. In particular, the long wavelength absorption and emission of HNEP+ are not present in HNETP due to the loss of conjugation and the cationic pyridinium functionality. […] This reflects two distinct processes: accumulation of HNETP in the cells and the metabolism of HNETP to HNEP+ by MAOs. Inhibitors of MAO are important for several diseases including Parkinsons Disease as well as hypertensive disorders.

T1 sequence (P23975 whole entry): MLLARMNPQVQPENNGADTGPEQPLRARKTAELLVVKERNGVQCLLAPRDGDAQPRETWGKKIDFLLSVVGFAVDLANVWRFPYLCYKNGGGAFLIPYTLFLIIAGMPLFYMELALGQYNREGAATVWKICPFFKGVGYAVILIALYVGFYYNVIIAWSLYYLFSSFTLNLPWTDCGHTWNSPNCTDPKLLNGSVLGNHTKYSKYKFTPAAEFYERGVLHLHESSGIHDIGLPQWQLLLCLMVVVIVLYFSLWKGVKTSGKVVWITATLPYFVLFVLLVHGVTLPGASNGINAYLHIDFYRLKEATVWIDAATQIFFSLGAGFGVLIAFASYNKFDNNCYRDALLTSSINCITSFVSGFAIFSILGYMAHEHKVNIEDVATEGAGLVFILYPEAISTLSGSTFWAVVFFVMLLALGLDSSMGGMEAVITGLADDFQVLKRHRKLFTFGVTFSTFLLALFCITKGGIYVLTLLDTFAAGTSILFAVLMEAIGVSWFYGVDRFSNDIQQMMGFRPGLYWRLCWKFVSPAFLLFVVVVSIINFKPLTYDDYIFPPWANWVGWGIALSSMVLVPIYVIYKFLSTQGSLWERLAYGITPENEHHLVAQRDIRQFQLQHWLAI
T3 sequence (P31645 whole entry): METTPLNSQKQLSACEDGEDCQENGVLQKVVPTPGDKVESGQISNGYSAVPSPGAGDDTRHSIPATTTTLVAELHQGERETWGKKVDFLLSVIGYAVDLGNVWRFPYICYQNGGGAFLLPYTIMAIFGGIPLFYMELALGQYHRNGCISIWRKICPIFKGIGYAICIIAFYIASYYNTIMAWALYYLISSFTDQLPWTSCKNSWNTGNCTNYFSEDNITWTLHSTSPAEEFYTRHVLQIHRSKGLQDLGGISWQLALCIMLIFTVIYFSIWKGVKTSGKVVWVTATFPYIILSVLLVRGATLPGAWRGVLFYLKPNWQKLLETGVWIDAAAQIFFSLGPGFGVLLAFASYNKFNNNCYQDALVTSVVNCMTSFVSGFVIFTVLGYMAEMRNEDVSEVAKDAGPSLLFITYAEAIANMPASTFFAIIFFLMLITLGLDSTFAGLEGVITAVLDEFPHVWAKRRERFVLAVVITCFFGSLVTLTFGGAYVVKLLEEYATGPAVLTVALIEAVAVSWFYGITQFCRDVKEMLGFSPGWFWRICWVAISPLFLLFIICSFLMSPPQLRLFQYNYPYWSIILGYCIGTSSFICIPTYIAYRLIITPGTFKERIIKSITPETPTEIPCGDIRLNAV
T2 sequence (Q01959 whole entry): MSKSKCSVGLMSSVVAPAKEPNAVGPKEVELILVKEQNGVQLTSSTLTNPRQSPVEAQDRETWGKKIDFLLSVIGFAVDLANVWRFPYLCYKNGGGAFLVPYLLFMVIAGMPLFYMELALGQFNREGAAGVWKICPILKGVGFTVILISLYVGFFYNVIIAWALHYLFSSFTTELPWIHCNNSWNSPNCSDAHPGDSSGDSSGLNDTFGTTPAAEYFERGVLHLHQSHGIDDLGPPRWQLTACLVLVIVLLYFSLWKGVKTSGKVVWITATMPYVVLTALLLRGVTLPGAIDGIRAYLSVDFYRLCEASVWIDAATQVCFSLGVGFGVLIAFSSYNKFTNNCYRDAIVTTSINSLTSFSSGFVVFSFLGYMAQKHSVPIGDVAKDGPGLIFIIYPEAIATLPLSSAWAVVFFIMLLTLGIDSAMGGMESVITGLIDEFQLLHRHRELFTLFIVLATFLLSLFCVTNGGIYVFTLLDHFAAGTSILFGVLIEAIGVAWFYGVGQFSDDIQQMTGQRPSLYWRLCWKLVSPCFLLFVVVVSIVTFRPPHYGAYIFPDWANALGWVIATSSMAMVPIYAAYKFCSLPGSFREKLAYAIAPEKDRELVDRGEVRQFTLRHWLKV

NCCn1c(=O)cc(C(F)(F)F)c2ccc(O)cc21 [Compound 1]
effect of Clomipramine pretreatment on uptake [1]: significantly reduced
emission response (cellular uptake) [1]: high emission response
cell binding / illumination ([2]; one minute exposure, 405 nm excitation): bound to and illuminated most healthy cells
photostability during imaging ([2]; without antifade reagents): sufficiently stable to capture multiple images over 10 mins
subcellular localization of probe ([2]; z-stacks, one minute exposure): localized internally after only one minute of exposure; also recorded: localized to the interior of both astroglia and neurons

CN(C)CCn1c(=O)cc(C(F)(F)F)c2ccc(O)cc21 [Compound 2]
emission response (cellular uptake) [1]: did not differ significantly from the controls

O=c1cc(C(F)(F)F)c2ccc(O)cc2n1CCO [Compound 3]
small additional emission peak [3]: 380 nm
emission response (cellular uptake) [1]: did not differ significantly from the controls

O=c1cc(C(F)(F)F)c2ccc(O)cc2n1CCCc1ccccc1 [Compound 4]
solubility [4]: < 50 µM
small additional emission peak [3]: 380 nm
effect of Clomipramine pretreatment on uptake [1]: significantly reduced
emission response (cellular uptake) [1]: to a lesser extent

NCCc1c[nH]c2ccc(O)cc12 [Compound 5HT, 5-hydroxytryptamine, reference compound]
λmax,abs ([3]; 5HT comparison): 277 nm

CN(C)CCn1c(=O)cc(C(F)(F)F)c2ccc(O)cc21 [Compound 8]
uptake in dissociated chick brain cells [5]: little or no uptake

CN(C)CCN1C(=O)c2cccc3c(N)ccc(c23)C1=O [Compound 9]
uptake in dissociated chick brain cells [5]: little or no uptake

COc1ccc(/C=C/c2cc[n+](C)cc2)cc1 [Compound 12A]
absorption maxima ([6]; 10 μM solutions): 358 nm
emission maxima ([6]; 10 μM solutions): 475 nm and 490 nm
emission response after indatraline pretreatment [7]: maintained high responses even after indatraline pretreatment
uptake in dissociated chick brain cells [5]: accumulated

C[n+]1ccc(/C=C/c2ccc3ccccc3c2)cc1.[I-] [Compound 13A, (E)-1-Methyl-4-[2-(2-naphthalenyl)ethenyl]-pyridinium iodide]
overall brightness (ε·Φem) ([6]; versus acridine orange, Hoescht 33258 and DAPI): compares favorably
emission response after indatraline pretreatment [7]: affected by indatraline pretreatment
accumulation / transport in cells expressing NET (hNET): did not accumulate; also recorded: does not appear to be transported
accumulation / transport in cells expressing DAT (hDAT): did not accumulate; also recorded: does not appear to be transported
accumulation / transport in cells expressing SERT (hSERT): did not accumulate; also recorded: does not appear to be transported
distribution in live brain sections [8]: widely distributed in both the cerebellum and pons

C[n+]1ccc(/C=C/c2ccc3cc(O)ccc3c2)cc1 [Compound 14A, (E)-4-[2-(6-hydroxy-2-naphthalenyl)ethenyl]-1-methyl-pyridinium iodide]
accumulation / transport in cells expressing NET (hNET): preferentially accumulates in cells expressing NET; also recorded: rapidly accumulated
accumulation / transport in cells expressing SERT (hSERT): does not differ substantially from the control untransfected HEK cells
distribution in live brain sections [8]: appears in distinct cell groupings along the cerebellar gyri and around the midline of the brainstem
effect of desipramine pretreatment on accumulation ([8]; pretreatment with desipramine, a norepinephrine reuptake inhibitor): limited the accumulation

CN1CC=C(/C=C/c2ccc3cc(O)ccc3c2)CC1 [HNETP]
metabolic conversion by MAOs [9]: convert HNETP to HNEP+ in cell culture
